Measurements taken from patent US20080255186A1, “Pyrazolo[3,4-B]Pyridine Compound, and Its Use as a Pde4 Inhibitor” (priority 2005, published 2008).

Experiments:
[1] = target: T1, PDE4B (human recombinant) (Homo sapiens, UniProt Q07343); assay: PDE4B inhibition, IMAP Fluorescence Polarisation (FP) assay; format: biochemical; conditions: mean of n = 3 readings; accurate to about ±0.5 log unit; read-out: PDE4B pIC50 (± about 0.5) (FP assay), Mean pIC50 value (converted)
T1 construct: made in house; host or cells: Saccharomyces cerevisiae strain GL62 (PDE-deficient yeast)
T1 sequence (Q07343 1-564 isoform Q07343-2): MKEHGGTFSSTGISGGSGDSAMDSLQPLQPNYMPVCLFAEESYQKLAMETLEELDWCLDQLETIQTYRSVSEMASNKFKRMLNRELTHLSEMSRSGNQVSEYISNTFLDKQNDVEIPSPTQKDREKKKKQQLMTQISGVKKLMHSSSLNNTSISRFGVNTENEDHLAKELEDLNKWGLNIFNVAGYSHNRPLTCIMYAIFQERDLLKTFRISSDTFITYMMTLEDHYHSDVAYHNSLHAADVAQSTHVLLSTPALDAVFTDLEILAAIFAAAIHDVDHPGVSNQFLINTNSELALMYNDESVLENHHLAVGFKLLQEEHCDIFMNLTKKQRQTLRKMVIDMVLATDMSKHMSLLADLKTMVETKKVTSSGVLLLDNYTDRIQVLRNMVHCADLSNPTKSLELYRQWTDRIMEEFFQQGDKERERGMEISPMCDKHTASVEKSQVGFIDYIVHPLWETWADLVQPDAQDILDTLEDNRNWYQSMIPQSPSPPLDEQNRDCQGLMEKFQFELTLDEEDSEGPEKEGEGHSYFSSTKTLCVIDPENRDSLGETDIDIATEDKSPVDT
From the text: Human recombinant PDE4B, in particular the 2B splice variant thereof (HSPDE4B2B), is disclosed in WO 94/20079 and also M. M. McLaughlin et al., “A low Km, rolipram-sensitive, cAMP-specific phosphodiesterase from human brain: cloning and expression of cDNA, biochemical characterisation of recombinant protein, and tissue distribution of mRNA”, J. Biol. Chem., 1993, 268, 6470-6476. For example, in Example 1 of WO 94/20079, human recombinant PDE4B is described as being expressed in the PDE-deficient yeast Saccharomyces cerevisiae strain GL62, e.g. after induction by addition of 150 uM CuSO4, and 100,000×g supernatant fractions of yeast cell lysates are described for use in the harvesting of PDE4B enzyme.
The ability of compounds to inhibit catalytic activity at PDE4B (human recombinant) or PDE4D (human recombinant) can optionally be determined by IMAP Fluorescence Polarisation (FP) assay (IMAP Explorer kit, available from Molecular Devices Corporation, Sunnydale, Calif., USA; Molecular Devices code: R8062) in 384-well format.
The IMAP FP assay is able to measure PDE activity in an homogenous, non-radioactive assay format. […] Binding of Fl-AMP product to the beads (coated with the immobilised trivalent cations) slows the rotation of the bound Fl-AMP and leads to an increase in the fluorescence polarisation ratio of parallel to perpendicular light. […]

PDE3 (from bovine aorta) = assay: PDE3 inhibition (FP or SPA general type of assay); format: biochemical; conditions: in the particular assays used
From the text: PDE3 can be purified from bovine aorta as described by H. Coste and P. Grondin, “Characterisation of a novel potent and specific inhibitor of type V phosphodiesterase”, Biochem. Pharmacol., 1995, 50, 1577-1585.
The ability of compounds to inhibit catalytic activity at PDE4B or 4D (human recombinant), PDE3 (from bovine aorta), PDE5 (human recombinant) or PDE6 (from bovine retina) can optionally be determined by Scintillation Proximity Assay (SPA) in a 96-well format.
Test compounds (as a solution in DMSO, suitably about 2 microlitre (ul) volume of DMSO solution) are preincubated at ambient temperature (room temperature, e.g. 19-23° C.) in Wallac Isoplates (code 1450-514) with PDE enzyme in 50 mM Tris-HCl buffer pH 7.5, 8.3 mM MgCl2, 1.7 mM EGTA, 0.05% (w/v) bovine serum albumin for 10-30 minutes (usually 30 minutes). […] Bound radioactive product is measured using a WALLAC TRILUX 1450 Microbeta scintillation counter. […] Curves are analysed using ActivityBase and XLfit (ID Business Solutions Limited, 2 Ocean Court, Surrey Research Park, Guildford, Surrey GU2 7QB, United Kingdom). Results are expressed as pIC50 values.
The compound of the invention (e.g. as prepared in Example 1) has also been tested for PDE3, PDE5 and PDE6 inhibition, e.g. using (independently for each PDE type) either a Fluorescence Polarisation (FP) general type of assay or using an SPA general type of assay.

IC50 [1]: ~0.158 nM
SMILES: CCc1nc2c(cnn2CC)c(NC2CCOCC2)c1CNC(=O)c1cc(C)no1 [Example 1, N-{[1,6-diethyl-4-(tetrahydro-2H-pyran-4-ylamino)-1H-pyrazolo[3,4-b]pyridin-5-yl]methyl}-3-methyl-5-isoxazolecarboxamide]
PDE4B pIC50 compared with PDE3 pIC50 (selectivity) (PDE3 (from bovine aorta)): inhibits PDE4B more strongly than it inhibits PDE3, PDE5 and PDE6
